Source: PubChem BioAssay AID330 (DTP/NCI, 2004)
Several values for one entry are separate records, joined by “and”; a condition that tells them apart may be missing. Identical values can stand only once. Toxic doses and inconclusive results are not listed. How the source made its calls: active means survival T/C of 150% or more; inactive means T/C below 125% in these data.

System: P388 leukemia ip, CD2F1 mice, survival T/C
Test: NCI In Vivo Anticancer Drug Screen. Data for tumor model P388 Leukemia (intraperitoneal) in CD2F1 (CDF1) mice
Settings: endpoint: median survival time, higher = longer survival
In short: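 Mice carrying the transplanted tumor received test compound or vehicle. Survival was recorded in each group, and the value is the treated-group measurement divided by that of the vehicle-treated control group.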

[1] = dose: 50.0 mg/kg/injection, schedule: Q01DX005 (ip), vehicle: saline
[2] = dose: 100.0 mg/kg/injection, schedule: Q01DX005 (ip), vehicle: saline
[3] = dose: 200.0 mg/kg/injection, schedule: Q01DX005 (ip), vehicle: saline
[4] = dose: 50.0 mg/kg/injection, schedule: Q01DX005 (ip), vehicle: saline with Tween-80
[5] = dose: 100.0 mg/kg/injection, schedule: Q01DX005 (ip), vehicle: saline with Tween-80
[6] = dose: 200.0 mg/kg/injection, schedule: Q01DX005 (ip), vehicle: saline with Tween-80
[7] = dose: 60.0 mg/kg/injection, schedule: Q01DX005 (ip), vehicle: saline with Tween-80
[8] = dose: 50.0 mg/kg/injection, schedule: Q01DX009 (ip), vehicle: Klucel (hydroxypropylcellulose) (HPC)
[9] = dose: 12.5 mg/kg/injection, schedule: Q01DX009 (ip), vehicle: saline with Tween-80
[10] = dose: 50.0 mg/kg/injection, schedule: Q01DX009 (ip), vehicle: saline with Tween-80
[11] = dose: 25.0 mg/kg/injection, schedule: Q04DX003 (ip), vehicle: saline with Tween-80
[12] = dose: 50.0 mg/kg/injection, schedule: Q04DX003 (ip), vehicle: saline with Tween-80
[13] = dose: 100.0 mg/kg/injection, schedule: Q04DX002 (ip), vehicle: saline with Tween-80
[14] = dose: 200.0 mg/kg/injection, schedule: Q04DX002 (ip), vehicle: saline with Tween-80
[15] = dose: 400.0 mg/kg/injection, schedule: Q04DX002 (ip), vehicle: saline with Tween-80

Measured: T/C

O=C1C=C2OCOC2=CC1=O
inactive: dose: 4.38 mg/kg/injection, schedule: Q01DX005 (ip), vehicle: Klucel (hydroxypropylcellulose) (HPC) 100 % of control | dose: 8.75 mg/kg/injection, schedule: Q01DX005 (ip), vehicle: Klucel (hydroxypropylcellulose) (HPC) 99 % of control | dose: 17.5 mg/kg/injection, schedule: Q01DX005 (ip), vehicle: Klucel (hydroxypropylcellulose) (HPC) 103 % of control and 104 % of control

CN1CCc2cc3c4cc2C1Cc1ccc(O)c(c1)Oc1ccc(cc1)CC1c2c(cc(O)c(c2O4)O3)CCN1C (centres undefined)
inactive: dose: 0.25 mg/kg/injection, schedule: Q01DX009 (ip), vehicle: saline 103 % of control | dose: 0.5 mg/kg/injection, schedule: Q01DX009 (ip), vehicle: saline 110 % of control | dose: 1.0 mg/kg/injection, schedule: Q01DX009 (ip), vehicle: saline 103 % of control | dose: 2.0 mg/kg/injection, schedule: Q01DX009 (ip), vehicle: saline 100 % of control | dose: 4.0 mg/kg/injection, schedule: Q01DX009 (ip), vehicle: saline 94 % of control

Cc1ccc(N=Nc2c(O)n(-c3ccccc3C)c(=S)n(-c3ccccc3Cl)c2=O)cc1
inactive: dose: 100.0 mg/kg/injection, schedule: Q01DX001 (ip), vehicle: Klucel (hydroxypropylcellulose) (HPC) 101 % of control | dose: 200.0 mg/kg/injection, schedule: Q01DX001 (ip), vehicle: Klucel (hydroxypropylcellulose) (HPC) 103 % of control | dose: 400.0 mg/kg/injection, schedule: Q01DX001 (ip), vehicle: Klucel (hydroxypropylcellulose) (HPC) 104 % of control

C=CC1C(=O)N(C)[C@H](C(C)(C)C)N1C(=O)c1ccccc1 (some centres undefined)
inactive: [1] 100 % of control | [2] 93 % of control | [3] 113 % of control

O=C(CCc1n[nH]c(=S)o1)Nc1ccccc1
inactive: [4] 102 % of control | [5] 95 % of control | [6] 96 % of control

O=C(O)CC1OCC=C2C[N+]3([O-])CCC45c6ccccc6NC4C1C2CC53 (centres undefined)
inactive: dose: 15.0 mg/kg/injection, schedule: Q01DX005 (ip), vehicle: saline with Tween-80 105 % of control | dose: 30.0 mg/kg/injection, schedule: Q01DX005 (ip), vehicle: saline with Tween-80 105 % of control | [7] 99 % of control and 101 % of control

COc1ccccc1N=Nc1c(-c2cccs2)nn(C(=S)SC)c1C(F)(F)F
inactive: [7] 92 % of control | dose: 120.0 mg/kg/injection, schedule: Q01DX005 (ip), vehicle: saline with Tween-80 97 % of control | dose: 240.0 mg/kg/injection, schedule: Q01DX005 (ip), vehicle: saline with Tween-80 97 % of control

COc1ccc(OC)c(CCN2C(=O)c3cccc4c([N+](=O)[O-])ccc(c34)C2=O)c1
inactive: [8] 98 % of control | dose: 100.0 mg/kg/injection, schedule: Q01DX009 (ip), vehicle: Klucel (hydroxypropylcellulose) (HPC) 106 % of control | dose: 200.0 mg/kg/injection, schedule: Q01DX009 (ip), vehicle: Klucel (hydroxypropylcellulose) (HPC) 113 % of control

C=CC[P+](Cc1cccc(C)c1)(c1ccccc1)c1ccccc1
inactive: dose: 0.78 mg/kg/injection, schedule: Q01DX009 (ip), vehicle: saline 99 % of control | dose: 1.56 mg/kg/injection, schedule: Q01DX009 (ip), vehicle: saline 111 % of control | dose: 3.13 mg/kg/injection, schedule: Q01DX009 (ip), vehicle: saline 104 % of control

CCCCc1ccc(N(C)C)cc1
inactive: [9] 101 % of control | dose: 25.0 mg/kg/injection, schedule: Q01DX009 (ip), vehicle: saline with Tween-80 110 % of control | [10] 110 % of control

ClC1=C(Cl)C2(Cl)C3C4CC(C5OC45)C3C1(Cl)C2(Cl)Cl (centres undefined)
inactive: dose: 3.13 mg/kg/injection, schedule: Q01DX009 (ip), vehicle: saline with Tween-80 104 % of control and 97 % of control | dose: 6.25 mg/kg/injection, schedule: Q01DX009 (ip), vehicle: saline with Tween-80 90 % of control and 97 % of control | [9] 86 % of control

O=P1(N(CCCl)CCCl)Nc2cccc3cccc(c23)N1
inactive: dose: 6.25 mg/kg/injection, schedule: Q01DX009 (ip), vehicle: Klucel (hydroxypropylcellulose) (HPC) 110 % of control and 111 % of control | dose: 12.5 mg/kg/injection, schedule: Q01DX009 (ip), vehicle: Klucel (hydroxypropylcellulose) (HPC) 103 % of control and 114 % of control | dose: 25.0 mg/kg/injection, schedule: Q01DX009 (ip), vehicle: Klucel (hydroxypropylcellulose) (HPC) 102 % of control and 119 % of control | [8] 120 % of control

CCOC(=O)C1=NNC(C#N)C1 (centres undefined)
inactive: [4] 101 % of control | [5] 97 % of control | [6] 99 % of control

CCOC(=O)CCCC(=O)Cl
inactive: [10] 94 % of control | dose: 100.0 mg/kg/injection, schedule: Q01DX009 (ip), vehicle: saline with Tween-80 99 % of control | dose: 200.0 mg/kg/injection, schedule: Q01DX009 (ip), vehicle: saline with Tween-80 96 % of control

c1cc2c(c(NC3=NCCCO3)c1)CCCC2
inactive: dose: 12.5 mg/kg/injection, schedule: Q04DX003 (ip), vehicle: saline with Tween-80 108 % of control | [11] 108 % of control | [12] 100 % of control

C1=C(c2ccc(OCc3ccccc3)c(OCc3ccccc3)c2)CC2CCCCC2C1 (centres undefined)
inactive: [13] 93 % of control | [14] 93 % of control | [15] 111 % of control

CCCCC[C@@H]1CCCC2C1CC[C@@H](CCCCCI)N2C(=O)OCC(Cl)(Cl)Cl (some centres undefined)
inactive: [13] 100 % of control | [14] 100 % of control | [15] 105 % of control

C[C@H]1C(=O)NC(=O)[C@@H]1C
inactive: [1] 106 % of control | [2] 100 % of control | [3] 103 % of control

COc1cc2ccc(/C=N/NC(N)=S)cc2cc1OC
inactive: dose: 12.5 mg/kg/injection, schedule: Q01DX009 (ip), vehicle: water 96 % of control | dose: 25.0 mg/kg/injection, schedule: Q01DX009 (ip), vehicle: water 90 % of control | dose: 50.0 mg/kg/injection, schedule: Q01DX009 (ip), vehicle: water 96 % of control | dose: 100.0 mg/kg/injection, schedule: Q01DX009 (ip), vehicle: water 91 % of control | dose: 200.0 mg/kg/injection, schedule: Q01DX009 (ip), vehicle: water 89 % of control

CSc1nc(NCc2ccc(Cl)cc2)c2[nH]c(C)nc2n1
inactive: dose: 0.2 mg/kg/injection, schedule: Q01DX009 (ip), vehicle: saline with Tween-80 98 % of control and 101 % of control | dose: 0.39 mg/kg/injection, schedule: Q01DX009 (ip), vehicle: saline with Tween-80 101 % of control and 94 % of control | dose: 0.78 mg/kg/injection, schedule: Q01DX009 (ip), vehicle: saline with Tween-80 106 % of control and 93 % of control | dose: 1.56 mg/kg/injection, schedule: Q01DX009 (ip), vehicle: saline with Tween-80 99 % of control and 95 % of control

COc1c(Br)cc(/C=C(/C)[N+](=O)[O-])cc1Br
inactive: [11] 112 % of control | [12] 106 % of control | dose: 100.0 mg/kg/injection, schedule: Q04DX003 (ip), vehicle: saline with Tween-80 122 % of control

Clc1ncnc2n[nH]c(Br)c12
inactive: dose: 100.0 mg/kg/injection, schedule: Q04DX002 (ip), vehicle: water 108 % of control | dose: 200.0 mg/kg/injection, schedule: Q04DX002 (ip), vehicle: water 116 % of control | dose: 400.0 mg/kg/injection, schedule: Q04DX002 (ip), vehicle: water 107 % of control

C#CCOCC(O)CCl (centres undefined)
inactive: dose: 100.0 mg/kg/injection, schedule: Q01DX009 (ip), vehicle: saline 90 % of control | dose: 200.0 mg/kg/injection, schedule: Q01DX009 (ip), vehicle: saline 105 % of control
